Reference: PMC8162404, “Proteomimetic surface fragments distinguish targets by function” (Chemical Science, 2020)
Where two headings read alike, the source gives them in different places.

Experiments:
RecQ-WH = target: T1, RecQ-WH (Escherichia coli, UniProt P15043); assay: Pull-down assay with immobilized protein and LSM libraries; design: species or system E. coli; settings: 1:1 binding assumed, read-out: Surface mapping KD (apparent)
T1 construct: coding for residues 408– 523 of E. coli RecQ; made in house; host or cells: E. coli BL21(DE3)
T1 sequence (P15043 408-523): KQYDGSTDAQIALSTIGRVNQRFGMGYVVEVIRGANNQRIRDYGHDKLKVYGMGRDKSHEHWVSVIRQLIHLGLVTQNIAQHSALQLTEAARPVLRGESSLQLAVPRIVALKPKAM
Experimental: Pull-down assays with immobilized test proteins and foldameric LSM libraries were carried out. Proteins were equilibrated with LSM probes, and equilibrium bound fractions (FB) were determined from the unbound fractions measured by HPLC-MS methods. Hits were corrected with background binding of the resin. The protocol allowed all binding events to equilibrate irrespective of affinity, specificity, and binding kinetics. This was essential to judge overall druggability and promiscuity. Importantly, the concentration of protein and the total concentration of foldameric LSMs were equimolar, which minimized competition between the probes. This experimental setup approximated independent binding of individual library members. Results were visualized as heat maps of dissociation constants (Fig. 3).
Pull-down assay and data analysis
Pull-down assay. LSM sublibraries were screened separately as previously described.(2) Experiments were performed in the following buffers: (i) 20 mM pH 7.4 HEPES, 150 mM NaCl, 5 mM CaCl2 for CaM; (ii) 50 mM pH 7.4 HEPES, 150 mM NaCl, 1 mM TCEP, 1 mM CaCl2 for S100 proteins; (iii) 20 mM pH 7.4 HEPES, 150 mM NaCl, 1 mM TCEP for Gal-1 and (iv) 20 mM pH 7.4 HEPES, 150 mM NaCl for RecQ-WH. Assays were performed in paper filter spin cups (Thermo Scientific) with sample volumes of 100 µl. Hexahistidine-tagged proteins were immobilized on previously washed Co-NTA resin (TALON, Takara Bio USA, Inc., Mountain View, CA) in 64 µM final concentration. LSM sublibrary was added, in which each of the 64 library members were used at a concentration of 1 µM. Samples were incubated at room temperature for 30 min with shaking at 100 rpm. Then, samples were centrifuged at 1000 rpm for 2 min and washed with 100 µl pull-down buffer to remove unbound compounds.
The control experiments were performed using the same compounds and the resin but without the immobilized protein. In case of competitive assays, competitor peptides were added to LSM sublibrary samples in 200 µM final concentration. In the case of Gal-1, lactose (competitor) was used in a concentration of 10 mM. Experiments were performed at least twice. Mean […]
LC-MS methods and parameters. HPLC/ESI-MS analysis was used to characterize the samples from the pull-down assay. LC-MS analysis was performed with a Thermo Scientific Dionex UltiMate 3000 HPLC system interfaced to an LTQ ion trap mass spectrometer (Thermo Electron Corp., San Jose, CA, USA). Samples were injected onto an Aeris Widepore XB-C18 (250 x 4.6 mm) analytical HPLC column using gradient elution 5-80 % solution B during 25 minutes. For pull-down samples, eluent composition was 0.1% acetic acid in distilled water (Solution A) and 0.1% acetic acid in acetonitrile (solution B). Mass spectra were acquired in full scan mode from 200 to 2000 m/z range. For overlapping peaks, selective reaction monitoring (SRM) was […]
MS data analysis. Thermo Xcalibur 2.2 software was used for peak identification and integration. The majority of the foldameric fragments could be resolved independently via HPLC-MS/MS measurements based on molecular weight, MS fragmentation pattern and retention time. Peaks of some foldamers with β3-hIle or β3-hLeu in position R2 could not be resolved, these were integrated and averaged. In the processing method, each sample component was associated to a chromatographic peak based on previously identified mass (m/z) and retention time (ref (2) and Table S7-10). Using ICIS peak detection algorithm, the general detection and integration criteria were: smoothing points: 5, baseline window: 80, area noise factor: 5, peak noise factor: 10. Using these processing setups, all raw data files were reprocessed together and analyzed. Errors in peak identification during the automatic processing were corrected manually.
Calculation of the discussed parameters
1. Bound fractions (FB.) were calculated from the HPLC-MS intensity loss of the LSM probes compared to the control where no protein was immobilized to the resin: […]

Gal-1 [1] = target: T2, Gal-1 (Homo sapiens, UniProt P09382); assay: as above; format: binding; settings: 1:1 binding assumed, read-out: Surface mapping KD (apparent)
T2 construct: made in house; host or cells: E. coli BL21(DE3)
T2 sequence (P09382 whole entry): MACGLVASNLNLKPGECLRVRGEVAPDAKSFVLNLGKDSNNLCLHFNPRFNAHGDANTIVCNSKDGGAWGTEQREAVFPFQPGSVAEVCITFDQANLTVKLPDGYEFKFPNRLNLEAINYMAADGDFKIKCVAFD
Method in brief: (§1)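 Buffers were HEPES pH 7.4 with 150 mM NaCl, plus 1 mM TCEP and 1 mM CaCl2 (50 mM HEPES) for S100A4 and S100B, 1 mM TCEP for Gal-1, and no additive for RecQ-WH. Immobilized protein at 64 µM was equilibrated 30 min with the LSM sublibrary, and unbound probes were measured by LC-MS.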

S100B [2] = target: T3, S100B (Homo sapiens, UniProt P04271); assay: as above; format: binding; settings: 1:1 binding assumed, read-out: Surface mapping KD (apparent)
T3 construct: made in house; host or cells: Escherichia coli BL21(DE3)
T3 sequence (P04271 1-92): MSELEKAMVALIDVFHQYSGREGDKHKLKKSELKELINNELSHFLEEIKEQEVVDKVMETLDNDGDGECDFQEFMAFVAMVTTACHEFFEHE
Method in brief: as §1

CaM [3] = target: T4, CaM (Bos taurus, UniProt P62157); assay: as above; format: binding, bovine; settings: 1:2 stoichiometry assumed, read-out: Surface mapping KD (apparent)
T4 construct: made in house; host or cells: E. coli BL21 (DE3)
Method in brief: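 CaM buffer was 20 mM HEPES pH 7.4, 150 mM NaCl, 5 mM CaCl2. LSM sublibrary members ([…]) incubated 30 min, RT, with equimolar His-tagged protein on Co-NTA resin. HPLC-MS measured unbound probes; bound fraction relative to resin-only background gave dissociation constants.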

S100B [4] = target: T3, S100B; assay: Competition pull-down with native ligand RSK1 (689–735); format: binding; settings: H14 library; competitor peptide 200 µM; read-out: Surface mapping KD (apparent), competition
Gal-1 [5] = target: T2, Gal-1; assay: Competition pull-down with lactose; format: binding; settings: H14 library; lactose 10 mM; read-out: Surface mapping KD (apparent), competition
Method in brief: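 His6-tagged proteins immobilized on Co-NTA resin at 64 µM final with 64-member LSM foldamer sublibraries (1 M each, as printed) in pH 7.4 HEPES/NaCl buffers (Ca2+/TCEP per target), 30 min RT; competitor peptides 200 µM final, lactose 10 mM for Gal-1. Bound fractions from LC-MS loss vs protein-free resin; KD assuming 1:1 binding.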

S100A4 = target: T5, S100A4 (Homo sapiens, UniProt P26447); assay: Pull-down assay with immobilized protein and LSM libraries; format: binding; settings: H14 library; 1:1 binding assumed; read-out: Surface mapping KD (apparent)
T5 construct: made in house; host or cells: Escherichia coli BL21(DE3)
T5 sequence (P26447 whole entry): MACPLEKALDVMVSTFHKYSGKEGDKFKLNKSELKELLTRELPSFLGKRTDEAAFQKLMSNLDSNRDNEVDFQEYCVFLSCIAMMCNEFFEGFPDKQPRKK
Method in brief: as §1

CaM [6] = target: T4, CaM; assay: Competition pull-down with native ligand TRPV1-Ct15; format: binding, bovine; settings: H14 library; competitor peptide 200 µM; read-out: Surface mapping KD (apparent), competition

Structure (SMILES)	Kd (RecQ-WH; H14 library) [µM]	Kd (S100B [2]; H12 library) [µM]	Kd (RecQ-WH; H12 library) [µM]	Kd (S100B [2]; H14 library) [µM]	Kd (CaM [3]; H14 library) [µM]	other results
CC[C@H](C)[C@@H](CC(=O)N[C@H]1CCCC[C@@H]1C(N)=O)NC(=O)[C@H]1CCCC[C@@H]1NC(=O)[C@H]1CCCC[C@@H]1NC(=O)C[C@H](CCC(=O)O)NC(=O)[C@H]1CCCC[C@@H]1N [H14 EI]	444					
NC(=O)[C@H]1CCC[C@@H]1NC(=O)[C@H]1CCC[C@@H]1NC(=O)C[C@H](CO)NC(=O)[C@H]1CCC[C@@H]1NC(=O)[C@H]1CCC[C@@H]1NC(=O)C[C@H](Cc1c[nH]c2ccccc12)NC(=O)[C@H]1CCC[C@@H]1NC(=O)[C@H]1CCC[C@@H]1N [H12 WS]		54	420			Kd (Gal-1 [1]; H12 library): 413 µM
N=C(N)NCCC[C@@H](CC(=O)N[C@H]1CCCC[C@@H]1C(=O)N[C@H]1CCCC[C@@H]1C(=O)N[C@@H](CO)CC(=O)N[C@H]1CCCC[C@@H]1C(N)=O)NC(=O)[C@H]1CCCC[C@@H]1N [H14 RS]	403			413	155	
NC(=O)CC[C@@H](CC(=O)N[C@H]1CCCC[C@@H]1C(=O)N[C@H]1CCCC[C@@H]1C(=O)N[C@H](CC(=O)N[C@H]1CCCC[C@@H]1C(N)=O)Cc1ccccc1)NC(=O)[C@H]1CCCC[C@@H]1N [H14 QF]				83	39	Kd (S100B [4]): 425 µM; Kd (Gal-1 [5]): 319 µM; Kd (Gal-1 [1]; H14 library): 285 µM; Kd (S100A4): 443 µM; Kd (CaM [6]): 211 µM
CC(C)C[C@@H](CC(=O)N[C@H]1CCC[C@@H]1C(=O)N[C@H]1CCC[C@@H]1C(=O)N[C@@H](CCCCN)CC(=O)N[C@H]1CCC[C@@H]1C(=O)N[C@H]1CCC[C@@H]1C(N)=O)NC(=O)[C@H]1CCC[C@@H]1NC(=O)[C@H]1CCC[C@@H]1N [H12 LK]		54	434			
N=C(N)NCCC[C@@H](CC(=O)N[C@H]1CCC[C@@H]1C(=O)N[C@H]1CCC[C@@H]1C(N)=O)NC(=O)[C@H]1CCC[C@@H]1NC(=O)[C@H]1CCC[C@@H]1NC(=O)C[C@H](Cc1ccccc1)NC(=O)[C@H]1CCC[C@@H]1NC(=O)[C@H]1CCC[C@@H]1N [H12 FR]		28	388			Kd (Gal-1 [1]; H12 library): 141 µM; Kd (CaM [3]; H12 library): 125 µM
NCCCC[C@@H](CC(=O)N[C@H]1CCCC[C@@H]1C(=O)N[C@H]1CCCC[C@@H]1C(=O)N[C@H](CC(=O)N[C@H]1CCCC[C@@H]1C(N)=O)Cc1ccc(O)cc1)NC(=O)[C@H]1CCCC[C@@H]1N [H14 KY]	407			63	36	
NC(=O)C[C@@H](CC(=O)N[C@H]1CCCC[C@@H]1C(=O)N[C@H]1CCCC[C@@H]1C(=O)N[C@H](CC(=O)N[C@H]1CCCC[C@@H]1C(N)=O)Cc1ccc(O)cc1)NC(=O)[C@H]1CCCC[C@@H]1N [H14 NY]				193	109	Kd (S100B [4]): 444 µM; Kd (Gal-1 [5]): 337 µM; Kd (Gal-1 [1]; H14 library): 210 µM; Kd (CaM [6]): 270 µM
NC(=O)[C@H]1CCCC[C@@H]1NC(=O)C[C@H](CCC(=O)O)NC(=O)[C@H]1CCCC[C@@H]1NC(=O)[C@H]1CCCC[C@@H]1NC(=O)C[C@H](Cc1ccccc1)NC(=O)[C@H]1CCCC[C@@H]1N [H14 FE]	328				475	
NCCCC[C@@H](CC(=O)N[C@H]1CCC[C@@H]1C(=O)N[C@H]1CCC[C@@H]1C(N)=O)NC(=O)[C@H]1CCC[C@@H]1NC(=O)[C@H]1CCC[C@@H]1NC(=O)C[C@H](Cc1ccc(O)cc1)NC(=O)[C@H]1CCC[C@@H]1NC(=O)[C@H]1CCC[C@@H]1N [H12 YK]		86	280			Kd (Gal-1 [1]; H12 library): 371 µM; Kd (CaM [3]; H12 library): 42 µM
NCCCC[C@@H](CC(=O)N[C@H]1CCC[C@@H]1C(=O)N[C@H]1CCC[C@@H]1C(N)=O)NC(=O)[C@H]1CCC[C@@H]1NC(=O)[C@H]1CCC[C@@H]1NC(=O)C[C@H](Cc1c[nH]c2ccccc12)NC(=O)[C@H]1CCC[C@@H]1NC(=O)[C@H]1CCC[C@@H]1N [H12 WK]		26	431			Kd (Gal-1 [1]; H12 library): 266 µM
CC(C)C[C@@H](CC(=O)N[C@H]1CCCC[C@@H]1C(N)=O)NC(=O)[C@H]1CCCC[C@@H]1NC(=O)[C@H]1CCCC[C@@H]1NC(=O)C[C@H](CCC(=O)O)NC(=O)[C@H]1CCCC[C@@H]1N [H14 EL]	444					
CSCC[C@@H](CC(=O)N[C@H]1CCC[C@@H]1C(=O)N[C@H]1CCC[C@@H]1C(=O)N[C@@H](CCCNC(=N)N)CC(=O)N[C@H]1CCC[C@@H]1C(=O)N[C@H]1CCC[C@@H]1C(N)=O)NC(=O)[C@H]1CCC[C@@H]1NC(=O)[C@H]1CCC[C@@H]1N [H12 MR]		59	435			Kd (Gal-1 [1]; H12 library): 186 µM
NC(=O)[C@H]1CCCC[C@@H]1NC(=O)C[C@H](CC(=O)O)NC(=O)[C@H]1CCCC[C@@H]1NC(=O)[C@H]1CCCC[C@@H]1NC(=O)C[C@H](Cc1ccccc1)NC(=O)[C@H]1CCCC[C@@H]1N [H14 FD]	193				489	
NC(=O)CC[C@@H](CC(=O)N[C@H]1CCCC[C@@H]1C(=O)N[C@H]1CCCC[C@@H]1C(=O)N[C@H](CC(=O)N[C@H]1CCCC[C@@H]1C(N)=O)Cc1ccc(O)cc1)NC(=O)[C@H]1CCCC[C@@H]1N [H14 QY]				166	92	Kd (S100B [4]): 188 µM; Kd (Gal-1 [5]): 350 µM; Kd (Gal-1 [1]; H14 library): 174 µM; Kd (CaM [6]): 345 µM
N=C(N)NCCC[C@@H](CC(=O)N[C@H]1CCCC[C@@H]1C(=O)N[C@H]1CCCC[C@@H]1C(=O)N[C@@H](CC(=O)O)CC(=O)N[C@H]1CCCC[C@@H]1C(N)=O)NC(=O)[C@H]1CCCC[C@@H]1N [H14 RD]	427					
N=C(N)NCCC[C@@H](CC(=O)N[C@H]1CCCC[C@@H]1C(=O)N[C@H]1CCCC[C@@H]1C(=O)N[C@@H](CC(N)=O)CC(=O)N[C@H]1CCCC[C@@H]1C(N)=O)NC(=O)[C@H]1CCCC[C@@H]1N [H14 RN]	439			212	185	
